Laboratory results: patent US9456601B2, “Pesticides based on vicinal diols” (priority 2001, dated 2016)
Where two headings read alike, the source gives them in different places.

What was measured:
[1] = system: human body louse (Pediculus humanus); test: LC50 tests against the human body louse; settings: for Potency index: LC50 value compared with that of 1,2-decanediol (=100%); for LC50: read-out: LC50 value; for LC50 / LC50 value: tests against lice (Pediculus humanus)
[2] = system: house dust mite Dermatophagoides pteronyssinus; test: House dust mite immersion test, mortality; type: in vivo
Source text: The utility of the vicinal diols is further illustrated by the results of experiments against the house dust mite Dermatophagoides pteronyssinus according to accepted industry protocols. Mites were sealed in a cotton envelope and briefly immersed (5 seconds) in dilute solutions (2.5%) of selected diols. The mites were examined one hour after immersion and mortality calculated. The results are shown in Table 3 below with comparative results for a proprietary carpet shampoo, permethrin insecticide and water (as controls).

lice [3] = test: Egg-laying activity of treated lice; type: in vivo; settings: FIG. 2
Source text: FIG. 2 is a further graph illustrating a relationship between diol chain length and egg-laying activity of treated lice.

house flies = type: in vivo, Musca domestica
Source text: A further example of the use of the compounds of the present invention is shown by testing decane-1,2-diol against house flies in a standard industry protocol for insecticides.

[4] = system: human body louse (Pediculus humanus); settings: in vivo
cockroaches = test: Immersion of cockroaches in test formulations, mortality; type: in vivo; settings: immersed for a few seconds and blotted dry
Source text: (§1) Vicinal diols are readily formulated in aqueous systems using non-toxic co-solvents such as isopropyl alcohol or by use of surfactants such as Tween®. This makes them eminently suitable for inclusion into many household or industrial, pesticidal or cleansing products. In particular they can be incorporated into pharmaceutical preparations for use on humans or animals. The treatment of lice and cockroaches with formulations containing 1,2-octanediol or 1,2-decanediol is tabulated in Table 4 along with control results for the solvent systems employed. In a procedure following standard industry protocols the subject animals were immersed for a few seconds in the test formulations and blotted dry. Mortality after 24 hrs was measured for the lice, after 1 hr for the cockroaches.

lice [5] = test: Immersion of lice in test formulations, mortality; type: in vivo; settings: immersed for a few seconds and blotted dry
Source text: as §1

Compound	Potency index [1]	LC50 [1] [mM]	LC50 value [1]	other results
CCCCCCC(O)CO (stereo not drawn) [1,2-Octanediol]	30%	40	–	Mortality ([2]; in vivo): 65%; prevention of egg laying (in words) (lice [3]): especially efficacious in the prevention of egg laying
CCCCCCCCC(C)O (stereo not drawn) [2-Decanol]	34%	37	–	–
CC(O)CCCCO (stereo not drawn) [1,5-Hexanediol]	Not effective	–	Not calculable	–
OCCCCCCCCCCO [decane-1,10-diol]	–	–	–	insecticidal activity (in words) (house flies; house flies): did not exhibit insecticidal activity
CCCCCCCC(CC)C(O)CO (stereo not drawn) [3-Ethyl-1,2-decanediol]	Not effective	–	Not calculable	–
OCCCCCCO [1,6-Hexanediol]	Not effective	–	–	LC50 value [4]: Not calculable
OCCCCC(O)CO (stereo not drawn) [1,2,6-Hexanetriol]	Not effective	–	Not calculable	–
CCCCCCCCCCO [1-Decanol]	32%	35	–	–
CCCCCC(O)CCO (stereo not drawn) [1,3-Octanediol]	Not effective	–	>400 mmol	–
CCCCCCCCC(CCCCCCC)C(O)CO (stereo not drawn) [3-Octyl-1,2-decanediol]	12%	97	–	–
CC(O)CCC(C)O (stereo not drawn) [2,5-Hexanediol]	Not effective	–	Not calculable	–
CCCCC(CC)CO (stereo not drawn) [2-Ethyl-1-hexanol]	4%	–	–	LC50 value [4]: 300 mmol
CCCCC(O)CO (stereo not drawn) [1,2-Hexanediol]	6%	–	>200 mmol	–
C=CCCCCCCCCO [9-Decene-1-ol]	36%	33	–	–
CCCCCCCC(CC)CCO (stereo not drawn) [3-Ethyl-1-decanol]	20%	62	–	–
CC1(C)C(C=C(Cl)Cl)C1C(=O)OCc1cccc(Oc2ccccc2)c1 (stereo not drawn) [0.25% Permethrin, Permethrin]	–	–	–	Cockroach mortality after 1 hr (cockroaches): 100%; Mortality ([2]; mites in cotton envelope immersed 5 seconds, diols as 2.5% solutions, examined one hour after immersion): 100%; Lice mortality after 24 hr (lice [5]): 100%
CCCCCCCCC(O)CO (racemic) [1,2-Decanediol]	100%	12	–	Mortality (house flies; in vivo): More than 80%; pediculicidal activity (in words) ([1]; against lice): significantly superior to 1,3-decanediol; Mortality ([2]; in vivo): 95%
CCCCCCC(O)CCC (stereo not drawn) [4-Decanol]	6%	–	183 mmol	–
CCC(O)CO (stereo not drawn) [1,2-Butanediol]	Not effective	–	>700 mmol	–
CC(O)CCO (stereo not drawn) [1,3-Butanediol]	Not effective	–	>2000 mmol	–
CCCC(O)C(CC)CO (stereo not drawn) [2-Ethyl-1,3-hexanediol]	20%	–	–	LC50 [4]: 60 mM
CCCC(O)C(O)CO (stereo not drawn) [1,2,3-Hexanetriol]	Not effective	–	Not calculable	–
CCCCCCCC(O)CCO (stereo not drawn) [1,3-Decanediol]	30%	40	–	–
